The text below walks through data of patent EP0483928A1, “2-Saccharinylmethyl aryl carboxylates useful as proteolytic enzyme inhibitors and compositions and method of use” (STERLING WINTHROP INC., priority 1990, dated 1992).

Each structure is given as a SMILES string. Counter-ions that a name gives are not always drawn.

One test deals with T1, human leukocyte elastase (HLE) (Homo sapiens, UniProt P08246).
T1 sequence (P08246 30-267): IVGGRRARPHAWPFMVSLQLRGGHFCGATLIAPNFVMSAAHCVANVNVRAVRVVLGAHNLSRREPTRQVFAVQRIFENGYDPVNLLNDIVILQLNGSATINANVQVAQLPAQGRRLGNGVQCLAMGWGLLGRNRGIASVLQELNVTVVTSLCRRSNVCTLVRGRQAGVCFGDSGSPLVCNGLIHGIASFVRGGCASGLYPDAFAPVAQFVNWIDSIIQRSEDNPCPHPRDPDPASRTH
Briefly: Inhibition of human leukocyte elastase: rate of inactivation kon and inhibition constant Ki* (koff/kon). The test is classed as biochemical.
Details: not given
In the case of `CCOP(=O)(OCC)c1cccc(C(=O)OCN2C(=O)c3c(C(C)C)cc(OC)cc3S2(=O)=O)c1` [Example 1BE], the Ki was determined as 0.064 nM.

Staying with this test, now noted: Ki* = koff/kon, calculated from measured koff and kon; not a truly reversible Ki; read-out: K*i.
`COc1cc(C(C)C)c2c(c1)S(=O)(=O)N(COC(=O)c1c(C)cc(OCc3ccccc3)cc1C)C2=O` [Example 1BZ]: the Ki was 0.3 nM.

With `CC(C)c1cccc2c1C(=O)N(COC(=O)c1c(Cl)ccc(S(=O)(=O)N(C)CCCN(C)C)c1Cl)S2(=O)=O` [Example 1AF], the Ki was 0.01 nM.

Take `O=C(OCN1C(=O)C2=C(C3CCC2C3)S1(=O)=O)c1c(Cl)cccc1Cl` (stereo not drawn) [Example 8, 2-(2,6-dichlorobenzoyloxymethyl)4,5,6,7-tetrahydro-4,7-methano-1,2-benzisothiazol-3(2H)-one 1,1-dioxide]: the Ki was 0.6 nM.

Regarding `CC(C)c1cccc2c1C(=O)N(COC(=O)c1c(Cl)ccc(OCCN(C)C)c1Cl)S2(=O)=O` [Example 1AE], the Ki is 0.009 nM.

For `CC(C)c1cccc2c1C(=O)N(COC(=O)c1c(Cl)ccc(O)c1Cl)S2(=O)=O` [Example 2A, 4-isopropyl-2-saccharinylmethyl 2,6-dichloro-3-hydroxybenzoate], the Ki is 0.04 nM.

Consider `CC(C)c1cccc2c1C(=O)N(COC(=O)c1c3ccccc3cc3ccccc13)S2(=O)=O` [Example 1L], for which the Ki was 0.3 nM.

Consider `CC(C)c1cccc2c1C(=O)N(COC(=O)c1c(Cl)ccc(OCC(=O)O)c1Cl)S2(=O)=O` [Example 3, 4-isopropyl-2-saccharinylmethyl 2,6-dichloro-3-carboxymethoxybenzoate], for which the Ki was 0.01 nM.

In the case of `Cc1cccc(C)c1C(=O)OCN1C(=O)c2c(C(C)C)cccc2S1(=O)=O` [Example 1K], the Ki was 0.09 nM.

As for `CC(C)c1cc2c(c3c1C(=O)N(COC(=O)c1c(Cl)cccc1Cl)S3(=O)=O)OCO2` [Example 1BG], the Ki was 0.043 nM.

On to `COc1cc(C(C)C)c2c(c1)S(=O)(=O)N(COC(=O)c1c(OC)cccc1OC)C2=O` [Example 1BK], for which the Ki was 0.088 nM.

On to `COc1cc(C(C)C)c2c(c1)S(=O)(=O)N(COC(=O)c1c(OC)ccc(NC(C)=O)c1OC)C2=O` [Example 1BR], for which the Ki was 0.057 nM.

`COc1cc(C(C)C)c2c(c1)S(=O)(=O)N(COC(=O)c1c(OC)ccc([N+](=O)[O-])c1OC)C2=O` [Example 1BN]: the Ki was 0.025 nM.

With `CC(C)c1cccc2c1C(=O)N(COC(=O)c1cccc3ccccc13)S2(=O)=O` [Example 1I], the Ki is 0.48 nM.

With `COc1cc(C(C)C)c2c(c1)S(=O)(=O)N(COC(=O)c1c(Cl)ccc(OCCN(C)C)c1Cl)C2=O` [Example 1AS], the Ki was 0.013 nM.

For `COCCOCCOc1cc(C(C)C)c2c(c1)S(=O)(=O)N(COC(=O)c1c(Cl)cccc1Cl)C2=O` [Example 5D], the Ki is 0.03 nM.

In the case of `CC(C)c1cc(OCC(O)CO)cc2c1C(=O)N(COC(=O)c1c(Cl)cccc1Cl)S2(=O)=O` (stereo not drawn) [Example 6, 6-(2,3-dihydroxypropoxy)-4-isopropylsaccharinylmethyl 2,6-dichlorobenzoate], the Ki was 0.016 nM.

Consider `CCN(CC)CCOc1ccc(Cl)c(C(=O)OCN2C(=O)c3c(C(C)C)cc(OC)cc3S2(=O)=O)c1Cl` [Example 1AV], for which the Ki was 0.023 nM.

`CCCc1c(OC)c(OC)cc2c1C(=O)N(COC(=O)c1c(Cl)cccc1Cl)S2(=O)=O` [Example 1BA]: the Ki is 0.078 nM.

Regarding `CCCc1c(OC)c(OC)cc2c1C(=O)N(COC(=O)c1c(Cl)ccc(OCCN3CCOCC3)c1Cl)S2(=O)=O` [Example 1BD], the Ki was 0.07 nM.

For `COC(=O)COc1cc(C(C)C)c2c(c1)S(=O)(=O)N(COC(=O)c1c(Cl)cccc1Cl)C2=O` [Example 5E], the Ki is 0.017 nM.

Turning to `CC(C)c1cccc2c1C(=O)N(COC(=O)c1c(Cl)ccc(OCc3ccccc3)c1Cl)S2(=O)=O` [Example 1Y], the Ki is 0.12 nM.

Consider `COc1cc(C(C)C)c2c(c1)S(=O)(=O)N(COC(=O)c1c(Cl)ccc(OCCN3CCCCC3)c1Cl)C2=O` [Example 1AU], for which the Ki was 0.03 nM.

Regarding `O=C(OCN1C(=O)c2ccccc2S1(=O)=O)c1c(Cl)ccc(S(=O)(=O)N2CCOCC2)c1Cl` [Example 1S], the Ki is 2 nM.

For the compound `CC(C)c1cccc2c1C(=O)N(COC(=O)c1c(Cl)cc(OCCN3CCOCC3)cc1Cl)S2(=O)=O` [Example 1BY], the Ki is 0.025 nM.

For the compound `CC(C)c1cccc2c1C(=O)N(COC(=O)c1c(Cl)ccc(S(=O)(=O)N(C)CCN(C)C)c1Cl)S2(=O)=O` [Example 1AA], the Ki was 0.01 nM.

With `CC(C)c1cccc2c1C(=O)N(COC(=O)c1c(Cl)ccc(S(=O)(=O)N3CCNCC3)c1Cl)S2(=O)=O` [Example 2B, 4-isopropyl-2-saccharinylmethyl 2,6-dichloro-3-(1-piperazinylsulfonyl)benzoate hydrochloride], the Ki was 0.02 nM.

Take `COc1cc(OC)c(C(=O)OCN2C(=O)c3c(C(C)C)cc(OC)cc3S2(=O)=O)c(OC)c1` [Example 1BO]: the Ki was 0.05 nM.

Consider `CC(C)c1cc(OCC(=O)OC(C)(C)C)cc2c1C(=O)N(COC(=O)c1c(Cl)cccc1Cl)S2(=O)=O` [Example 7A, 6-(2-t-butoxy-2-oxoethoxy)-4-isopropyl-2-saccharinylmethyl 2,6-dichlorobenzoate], for which the Ki is 0.08 nM.

In the case of `CC(C)Oc1cc(C(C)C)c2c(c1)S(=O)(=O)N(COC(=O)c1c(Cl)cccc1Cl)C2=O` [Example 5B], the Ki is 0.057 nM.

Regarding `CCOc1cc(C(C)C)c2c(c1)S(=O)(=O)N(COC(=O)c1c(Cl)cccc1Cl)C2=O` [Example 5A, 6-ethoxy-4-isopropyl-2-saccharinylmethyl 2,6-dichlorobenzoate], the Ki was 0.05 nM.

Take `CC(C)c1cccc2c1C(=O)N(COC(=O)c1c(Cl)ccc(S(=O)(=O)N3CCOCC3)c1Cl)S2(=O)=O` [Example 1U]: the Ki is 0.01 nM.

As to `COCC(COc1cc(C(C)C)c2c(c1)S(=O)(=O)N(COC(=O)c1c(Cl)cccc1Cl)C2=O)OC` (racemic) [Example 5F], the Ki was 0.027 nM.

Turning to `O=C(OCN1C(=O)c2ccccc2S1(=O)=O)c1cccc2ccccc12` [Example 1F], the Ki is 3 nM.

For the compound `COc1ccc(Cl)c(C(=O)OCN2C(=O)c3c(C(C)C)cccc3S2(=O)=O)c1Cl` [Example 1AB], the Ki is 0.016 nM.

For `CC(C)c1cccc2c1C(=O)N(COC(=O)c1c(Cl)ccc(S(=O)(=O)NCC(=O)O)c1Cl)S2(=O)=O` [Example 1W], the Ki was 0.01 nM.

`CC(C)c1cc(O)cc2c1C(=O)N(COC(=O)c1c(Cl)cccc1Cl)S2(=O)=O` [Example 1C, 4-isopropyl-6-hydroxysaccharinylmethyl 2,6-dichlorobenzoate]: the Ki is 0.4 nM.

On to `CC(C)c1cccc2c1C(=O)N(COC(=O)c1cc(Cl)ccc1Cl)S2(=O)=O` [Example 1M], for which the Ki is 0.25 nM.

Turning to `CC(C)c1cccc2c1C(=O)N(COC(=O)c1c(F)ccc(S(=O)(=O)N3CCN(C)CC3)c1F)S2(=O)=O` [Example 1AG], the Ki is 0.01 nM.

Consider `CC(C)c1cc(OCC(=O)OCc2ccccc2)cc2c1C(=O)N(COC(=O)c1c(Cl)cccc1Cl)S2(=O)=O` [Example 7B, 6-(2-benzyloxy-2-oxoethoxy)-4-isopropyl-2-saccharinylmethyl 2,6-dichlorobenzoate], for which the Ki is 0.056 nM.

Consider `COc1cc2c(c(C(C)C)c1OC)C(=O)N(COC(=O)c1c(Cl)cccc1Cl)S2(=O)=O` [Example 1BB], for which the Ki is 0.35 nM.

Regarding `O=C(O)CNS(=O)(=O)c1ccc(Cl)c(C(=O)OCN2C(=O)c3ccccc3S2(=O)=O)c1Cl` [Example 1T], the Ki is 4 nM.

On to `CC(C)c1cc2c(c3c1C(=O)N(COC(=O)c1c(Cl)ccc(OCCN4CCOCC4)c1Cl)S3(=O)=O)OCO2` [Example 1BJ], for which the Ki is 0.029 nM.

For `CC(C)C1CCCC2=C1C(=O)N(COC(=O)c1c(Cl)ccc(S(=O)(=O)N(C)CCN(C)C)c1Cl)S2(=O)=O` (stereo not drawn) [Example 9E, 4-isopropyl-4,5,6,7-tetrahydro-2-saccharinylmethyl 2,6-dichloro-3-[[2-(N,N-dimethylamino)ethyl]-N-methylaminosulfonyl]benzoate hydrochoride], the Ki was 2 nM.

Turning to `CC(C)c1cc(-c2cccn2C)cc2c1C(=O)N(COC(=O)c1c(Cl)cccc1Cl)S2(=O)=O` [Example 5J, 4-isopropyl-6-[2-[1-methyl]pyrrolidinyl]saccharinylmethyl 2,6-dichlorobenzoate], the Ki is 0.2 nM.

For the compound `CC(C)c1cc2c(c3c1C(=O)N(COC(=O)c1c(Cl)ccc(S(=O)(=O)N4CCN(C)CC4)c1Cl)S3(=O)=O)OCO2` [Example 1BI], the Ki is 0.029 nM.

Consider `CC(C)c1cc(OCC2COC(C)(C)O2)cc2c1C(=O)N(COC(=O)c1c(Cl)cccc1Cl)S2(=O)=O` (stereo not drawn) [Example 5C], for which the Ki is 0.03 nM.

With `COc1cc(C(C)C)c2c(c1)S(=O)(=O)N(COC(=O)c1c(F)cccc1F)C2=O` [Example 1BL], the Ki is 0.043 nM.

As for `COc1cc(F)c(C(=O)OCN2C(=O)c3c(C(C)C)cc(OC)cc3S2(=O)=O)c(F)c1` [Example 1BQ], the Ki was 0.068 nM.

`CC(C)c1cccc2c1C(=O)N(COC(=O)c1c(Cl)ccc(S(=O)(=O)N3CCN(Cc4ccccc4)CC3)c1Cl)S2(=O)=O` [Example 1Z, 4-isopropyl-2-saccharinylmethyl 2,6-dichloro-3-(4-benzyl-1-piperazinyl-sulfonyl)benzoate]: the Ki was 0.06 nM.

Take `CCc1c(OC)cc(OC)c2c1C(=O)N(COC(=O)c1c(Cl)cccc1Cl)S2(=O)=O` [Example 1AY]: the Ki was 0.9 nM.

On to `CN(C)c1cccc2c1C(=O)N(COC(=O)c1c(Cl)cccc1Cl)S2(=O)=O` [Example 11, 4-dimethylamino-2-saccharinylmethyl 2,6-dichlorobenzoate], for which the Ki is 0.2 nM.

With `CC(C)c1cc(OC2CCC2)cc2c1C(=O)N(COC(=O)c1c(Cl)cccc1Cl)S2(=O)=O` [Example 5G], the Ki is 0.054 nM.

Consider `CC(C)c1cccc2c1C(=O)N(COC(=O)c1c(Cl)ccc(S(=O)(=O)N3CCN(C)CC3)c1Cl)S2(=O)=O` [Example 1V], for which the Ki is 0.007 nM.
